The results in this text go back to patent US8304443B2, “Indazole derivatives” (Asahi Kasei Pharma Corporation, priority 2008, dated 2012).

Read-outs that look alike come from different tables or passages of the source.

In data set [1] the target is T1, human α1A adrenergic receptor (Homo sapiens, UniProt P35348).
T1 construct: expressed in transfected cells; host or cells: HEK293 cells, pcDNA3.1(−), geneticin-selected
T1 sequence (P35348 1-466): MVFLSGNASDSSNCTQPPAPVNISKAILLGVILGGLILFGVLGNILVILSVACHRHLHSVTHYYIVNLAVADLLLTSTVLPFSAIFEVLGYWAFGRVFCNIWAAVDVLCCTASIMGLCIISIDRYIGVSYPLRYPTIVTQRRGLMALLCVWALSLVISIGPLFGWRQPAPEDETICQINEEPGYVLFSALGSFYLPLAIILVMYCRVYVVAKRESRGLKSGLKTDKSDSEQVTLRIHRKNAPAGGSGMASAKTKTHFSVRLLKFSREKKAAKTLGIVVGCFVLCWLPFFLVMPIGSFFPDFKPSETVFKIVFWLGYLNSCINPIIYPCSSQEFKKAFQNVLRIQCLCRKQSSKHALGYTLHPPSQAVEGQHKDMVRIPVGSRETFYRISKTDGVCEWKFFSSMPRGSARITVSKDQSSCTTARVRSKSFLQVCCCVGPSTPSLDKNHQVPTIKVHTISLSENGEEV
Nature of the data set: Test example 4: human α1A adrenergic receptor agonist activity (Ca flux, Fura-2). The format is cell-based. Conditions: Test example 4, maximum response to norephinephrine taken as 100%; for Emax: read-out: α1A receptor I.A. The method, then: Human α1A adrenergic receptor agonist activity is determined by using HEK293 cells transfected with pcDNA3.1(−) (Invitrogen) to which human α1A gene has been inserted. These cells are cultured in a DMEM medium containing 10% fetal bovine serum, 400 μg/mL geneticin (Gibco BRL), 100 U/ml penicillin and 100 μg/ml streptomycin. […] After carrying out the loading for 30 minutes in a CO2 incubator, excess Fura-2AM is removed by washing the cells twice with the assay buffer. The cells obtained after the centrifuge is prepared to 5×10^6 cells/ml by using the assay buffer, and aliquoted into a 96-well UV plate (manufactured by Corning Inc.) to give a cell plate (80 μl/well). […] After the measurement for about 30 seconds, 20 μl of the test sample from the sample plate is added to the cell plate and the measurement is continued for another 270 seconds. Ca flux caused by the test compound is obtained from the peak height difference between the maximum value of fluorescence intensity ratio at 340 nm and 380 nm after the addition of the test compound and the fluorescence intensity ratio before the addition of the test compound. Maximum response to norephinephrine as a positive control is taken as 100%, and the maximum response ratio of each test compound is obtained as Intrinsic Activity [I.A. (%)].

The target of data set [2] is T2, human β3 adrenergic receptor (Homo sapiens, UniProt P13945).
T2 construct: used as a probe to obtain the full length human β3 gene from a human genomic library (Clonetech); expressed in transfected cells; host or cells: CHO (Chinese hamster ovary) cells, pcDNA3, geneticin-selected
Nature of the data set: Test example 1-B: human β3 adrenergic receptor agonist activity (cAMP-Screen, 96-well). The format is cell-based. The following applies: for Emax: 0.5 h, read-out: β3 receptor I.A.; for EC50: CHO cells with human β3 gene, cAMP. On the procedure: Human β3 adrenergic receptor agonist activity is determined using CHO (Chinese hamster ovary) cells transfected with pcDNA3 (Invitrogen) to which human β3 gene has been inserted. […] This human β3 cDNA fragment is used as a probe to obtain the full length human β3 gene from a human genomic library (Clonetech). The above cells are cultured in a Ham's F-12 medium containing 10% fetal bovine serum and 400 μg/mL geneticin (Invitrogen). After seeding these cells into a 96-well plate (2×10^4 cells/well) and culturing them for about 20 hours, they are allowed to stand in a serum-free Ham's F-12 medium (80 μL) for 15 minutes. The test compound is first dissolved in DMSO, serially diluted with Ham's F-12 comprising 100 mmol/L HEPES and 1 mmol/L isobutylmethylxanthine, and then 20 μL of the solution is added to the cells. After the cells are cultured for 30 minutes, the medium is removed, followed by addition of assay/lysis buffer (0.1 ml) included in cAMP-Screen Kit (manufactured by Applied Biosystems). The cells are incubated for 30 minutes at 37° C. The resulting cell lysate is determined to cAMP quantitation by using cAMP-Screen kit described above.

The test system of data set [3] is rat under pentobarbital anesthesia. Nature of the data set: Test example 9: effect on blood pressure and heart rate of a rat under pentobarbital anesthesia. It counts as in vivo. The following applies: male SD rat, 3 mg/kg intravenous bolus; greatest change of mean blood pressure relative to before administration; mean ± standard deviation. On the procedure: After measuring blood pressure and heart rate of a rat under pentobarbital anesthesia, an effect of intravenous bolus administration of a test compound on blood pressure and heart rate can be determined. To a male SD rat (Japan SLC Inc.), sodium pentobarbital (Tokyo Chemical Industry Co., Ltd.) is intraperitoneally administered for induction of anesthesia (50 mg/kg). As maintenance anesthetics, sodium pentobarbital is subcutaneously administered (25 mg/kg). Left femoral vein is exposed and stripped, and then a polyethylene tube SP10 (connected to a three-way stopcock via ¼ vein needle) which has been filled with physiological saline is inserted and left in the vein.
Left medial femoral region is cut to expose and strip the femoral artery, and then a polyethylene tube (SP31, connected to a three-way stopcock via 22 G injection needle by TERUMO Corporation) which has been filled with heparin physiological saline is inserted and connected to a pressure transducer. Blood pressure is measured from the pressure transducer by using a modified pressure amplifier (AP-641 G, Nihon Kohden Corporation). Heart rate is measured by using the Heart rate Counter (AT-601 g, Nihon Kohden Corporation) while having the pulse wave of the blood pressure as a trigger. The blood pressure, mean blood pressure and heart rate are transmitted to the data recorder for recordation. In addition, the mean blood pressure is recorded using a modified pressure amplifier (AP-641 G) according to the equation of {diastolic blood pressure+(systolic blood pressure−diastolic blood pressure)/3}.
Blood pressure and heart rate measurement is started, and after confirming that each value remains almost constant, the test compound (3 mg/kg) is administered to the left femoral vein for 30 seconds. Specifically, the test compound with 3 mg/mL concentration is bolus administered at the administration dose of 1 mL/kg. Relative value (%) at each time point compared to the mean blood pressure and the heart rate before the administration is obtained for each individual. […]

The target in data set [4] is T3, human β1 adrenergic receptor (Homo sapiens, UniProt P08588).
T3 construct: expressed in transfected cells; host or cells: CHO (Chinese hamster ovary) cells, pcDNA3
As to the kind of experiment: Test example 2-B: human β1 adrenergic receptor agonist activity. The following applies: 0.5 h; read-out: β1 receptor I.A. It counts as cell-based.

The target of data set [5] is T4, human β2 adrenergic receptor (Homo sapiens, UniProt P07550).
T4 construct: expressed in transfected cells; host or cells: CHO (Chinese hamster ovary) cells, pcDNA3
Nature of the data set: Test example 3-B: human β2 adrenergic receptor agonist activity. It counts as cell-based. Conditions: read-out: β2 receptor I.A.

Data set [6] concerns urinary bladder smooth muscle isolated from common marmoset. As to the kind of experiment: Test example 7: relaxant activity on urinary bladder smooth muscle isolated from common marmoset. The following applies: strips contracted by 40 mmol/L KCl, papaverine 10^−4 mol/L relaxation = 100%.
Procedure: Specifically, a common marmoset (CLEA Japan, Inc.) is bled to exsanguinated death, and then the urinary bladder is taken out of the marmoset via laparotomy. […] A resting tension of 1 g is applied to the strips, which is then equilibrated for more than 30 minutes. […] The final concentration is 10^−9, 10^−8, 10^−7, 10^−8, 10^−5 and 10^−4 mol/L. Upon the completion of the relaxation response to the test compound at the highest concentration, papaverine with final concentration of 10^−4 mol/L is added and the maximum relaxation response is obtained for each strip. This relaxation response is taken as 100%, and the relaxation ratio (%) is obtained for the test compound at the concentrations of 10^−5 and 10^−4 mol/L.
The target in data set [7] is T2, human β3 adrenergic receptor. As to the kind of experiment: Test example 1-A: human β3 adrenergic receptor agonist activity (cAMP EIA, 24-well). It counts as cell-based. Conditions: Table 3, maximum response to isoproterenol taken as 100%. On the procedure: Human β3 adrenergic receptor agonist activity is determined using CHO (Chinese hamster ovary) cells transfected with pcDNA3 (Invitrogen) to which human β3 gene has been inserted. […] This human β3 cDNA fragment is used as a probe to obtain the full length human β3 gene from a human genomic library (Clonetech). The above cells are cultured in a Ham's F-12 medium containing 10% fetal bovine serum and 400 μg/mL geneticin (Invitrogen).

T3 sequence (P08588 whole entry): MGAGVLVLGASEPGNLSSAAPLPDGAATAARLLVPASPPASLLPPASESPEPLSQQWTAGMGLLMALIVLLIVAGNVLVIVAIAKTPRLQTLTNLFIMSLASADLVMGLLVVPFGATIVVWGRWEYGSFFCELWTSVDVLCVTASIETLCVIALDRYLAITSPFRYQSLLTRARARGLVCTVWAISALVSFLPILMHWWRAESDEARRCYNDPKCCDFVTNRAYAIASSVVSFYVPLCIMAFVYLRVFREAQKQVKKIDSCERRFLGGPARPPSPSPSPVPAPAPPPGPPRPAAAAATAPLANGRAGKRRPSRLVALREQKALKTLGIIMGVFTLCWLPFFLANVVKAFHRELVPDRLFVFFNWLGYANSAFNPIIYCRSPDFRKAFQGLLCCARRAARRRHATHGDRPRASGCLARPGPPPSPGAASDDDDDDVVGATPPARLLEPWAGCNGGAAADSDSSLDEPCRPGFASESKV
T2 sequence (P13945 whole entry): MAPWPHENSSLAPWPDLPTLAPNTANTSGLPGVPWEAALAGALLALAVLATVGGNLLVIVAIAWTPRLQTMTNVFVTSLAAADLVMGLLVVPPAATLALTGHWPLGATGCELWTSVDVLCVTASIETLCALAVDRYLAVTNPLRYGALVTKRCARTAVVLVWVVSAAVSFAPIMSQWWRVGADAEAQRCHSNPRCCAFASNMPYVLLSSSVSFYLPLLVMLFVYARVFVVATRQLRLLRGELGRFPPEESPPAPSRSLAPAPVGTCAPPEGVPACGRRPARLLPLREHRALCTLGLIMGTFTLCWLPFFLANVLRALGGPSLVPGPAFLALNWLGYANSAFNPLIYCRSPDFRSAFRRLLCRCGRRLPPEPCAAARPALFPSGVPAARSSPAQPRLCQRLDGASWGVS
T4 sequence (P07550 whole entry): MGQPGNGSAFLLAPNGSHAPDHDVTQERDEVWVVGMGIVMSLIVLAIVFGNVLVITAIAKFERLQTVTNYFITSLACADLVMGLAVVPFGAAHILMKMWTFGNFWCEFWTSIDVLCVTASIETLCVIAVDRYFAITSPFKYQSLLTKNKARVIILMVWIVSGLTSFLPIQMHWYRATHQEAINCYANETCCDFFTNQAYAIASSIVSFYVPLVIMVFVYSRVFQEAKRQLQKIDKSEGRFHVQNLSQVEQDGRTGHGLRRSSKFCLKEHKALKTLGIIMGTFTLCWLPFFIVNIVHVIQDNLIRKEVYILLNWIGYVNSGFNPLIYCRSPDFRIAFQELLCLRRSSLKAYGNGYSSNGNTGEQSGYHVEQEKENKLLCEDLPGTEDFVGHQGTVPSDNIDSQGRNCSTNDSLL

The EC50 is the concentration that produces a half-maximal response. Low readings indicate higher potency in that assay, high ones lower potency in that assay. Regarding `COC(C)c1n[nH]c2cc(OCCNC[C@H](O)c3cccc(NS(C)(=O)=O)c3)ccc12` (stereo partly drawn) [Example 3, N-(3-((R)-1-Hydroxy-2-(2-(3-(1-methoxyethyl)-indazol-6-yloxy)ethylamino)ethyl)phenyl)methanesulfonamide], the Emax in data set [1] (Table 4) was 15%; in data set [2], 60%; in data set [4], 4%; in data set [5], 5%. Also, the midpoint of the response in data set [2] (Table 4, Test example 1-B), the EC50, lay at 45 nM. Further, in data set [3], the “increase in MBP (%)” value is 2.3 ± 0.9%.
With `CS(=O)(=O)Nc1cc([C@@H](O)CNCCOc2ccc3c(C4CC4)n[nH]c3c2)ccc1F` [Example 4, (R)—N-(5-(2-(2-(3-Cyclopropylindazol-6-yloxy)ethylamino)-1-hydroxyethyl)-2-fluorophenyl)methanesulfonamide], the Emax in data set [1] (Table 4) worked out at 0%; in data set [2], 52%; in data set [4], 9%; in data set [5], 8%. In data set [2] (Table 4, Test example 1-B), this molecule showed an EC50 of 24 nM.
The corresponding values for `CS(=O)(=O)Nc1cc([C@@H](O)CNCCOc2ccc3c(C4CC4)n[nH]c3c2)ccc1Cl` [Example 5, (R)—N-(2-Chloro-5-(2-(2-(3-cyclopropylindazol-6-yloxy)ethylamino)-1-hydroxyethyl)phenyl)methanesulfonamide] are 0%, 59%, 23%, 9% and 19 nM.
Turning to `CS(=O)(=O)Nc1cc([C@@H](O)CNCCOc2ccc3c(C4CCC4)n[nH]c3c2)ccc1F` [Example 6, (R)—N-(5-(2-(2-(3-Cyclobutylindazol-6-yloxy)ethylamino)-1-hydroxyethyl)-2-fluorophenyl)methanesulfonamide], the Emax in data set [1] (Table 4) turned out to be 0%; in data set [2], 41%. The molecule also yielded an EC50 in data set [2] (Table 4, Test example 1-B) of 54 nM.
In the same order, the values of `CS(=O)(=O)Nc1cc([C@@H](O)CNCCOc2ccc3c(OC(F)F)n[nH]c3c2)ccc1F` [Example 7, (R)—N-(5-(2-(2-(3-(Difluoromethoxy)-indazol-6-yloxy)ethylamino)-1-hydroxyethyl)-2-fluorophenyl)methanesulfonamide] are 5%, 51% and 584 nM.
As for `CS(=O)(=O)Nc1cc([C@@H](O)CNCCOc2ccc3c(C4CCC4)n[nH]c3c2)ccc1Cl` [Example 8, (R)—N-(2-Chloro-5-(2-(2-(3-cyclobutylindazol-6-yloxy)ethylamino)-1-hydroxyethyl)phenyl)methanesulfonamide], the Emax in data set [1] (Table 4) worked out at 0%; in data set [2], 70%; in data set [4], 34%; in data set [5], 10%. In addition, in data set [2] (Table 4, Test example 1-B), the half-maximal effective concentration (EC50) was determined as 29 nM.
In the same order, the values of `CS(=O)(=O)Nc1cc([C@@H](O)CNCCOc2ccc3c(OC(F)F)n[nH]c3c2)ccc1Cl` [Example 9, (R)—N-(2-Chloro-5-(2-(2-(3-(difluoromethoxy)-indazol-6-yloxy)ethylamino)-1-hydroxyethyl)phenyl)methanesulfonamide] are 5%, 51%, 30%, 1% and 56 nM.
As for `NC[C@H](O)c1ccc(O)c(O)c1` [Norepinephrine, reference compound], the Emax in data set [1] (Table 3) was 100%. Besides, the “α1A receptor I.A.” value in data set [1] (Table 4) is given as 100%.
Turning to `CC(C)NCC(O)c1ccc(O)c(O)c1` (centres unmarked) [isoproterenol, reference compound], the “β3 receptor I.A.” value in data set [2] (Table 4, Test example 1-B, maximum response to isoproterenol taken as 100%) came out at 100%; in data set [7], 100%. In addition, in data set [6] (10^−4 M), the “relaxant activity (%) 10^−4 M” value is 66.2%. In data set [6] (10^−5 M), the “relaxant activity (%) 10^−5 M” value was determined as 60.9%.
